{"source": "paper PMC9862037", "about": "“Interactions of Mycotoxin Alternariol with Cytochrome P450 Enzymes and OATP Transporters” (Metabolites, 2022)", "key": {"OATP1B1": {"target": "OATP1B1 (Homo sapiens, UniProt Q9Y6L6)", "sequence (Q9Y6L6 whole entry)": "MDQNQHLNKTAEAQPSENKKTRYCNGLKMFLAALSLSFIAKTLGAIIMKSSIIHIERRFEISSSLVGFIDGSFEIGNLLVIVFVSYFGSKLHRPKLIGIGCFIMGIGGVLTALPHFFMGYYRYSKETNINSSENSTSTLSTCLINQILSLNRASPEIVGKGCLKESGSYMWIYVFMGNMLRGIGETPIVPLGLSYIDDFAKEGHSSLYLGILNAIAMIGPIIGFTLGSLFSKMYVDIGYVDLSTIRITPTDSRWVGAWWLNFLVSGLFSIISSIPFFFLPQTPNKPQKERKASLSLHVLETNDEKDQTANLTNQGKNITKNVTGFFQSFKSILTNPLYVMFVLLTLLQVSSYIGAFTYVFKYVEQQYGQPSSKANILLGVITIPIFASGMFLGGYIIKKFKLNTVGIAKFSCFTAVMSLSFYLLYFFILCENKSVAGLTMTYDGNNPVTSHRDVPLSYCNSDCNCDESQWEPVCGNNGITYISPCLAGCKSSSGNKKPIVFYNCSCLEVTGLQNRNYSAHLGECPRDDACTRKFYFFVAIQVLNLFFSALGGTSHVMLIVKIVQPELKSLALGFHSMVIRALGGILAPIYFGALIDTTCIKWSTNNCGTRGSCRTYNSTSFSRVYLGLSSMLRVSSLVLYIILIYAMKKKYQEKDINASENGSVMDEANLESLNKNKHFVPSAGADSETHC", "type": "cell-based", "parameters": "expressed in transfected cells; host or cells: A431", "settings": "2, 5 or 10 µM AOH; 15 min; pH 5.5", "protocol": "The A431 cell line overexpressing OATP1B1 or mock transfected control were trypsinized, and counted with automated cell counter (TC10, BIORAD, Hercules, CA, USA). The cells were washed with 1 mL buffer (pH 5.5; described above) and centrifuged for 5 min at 1500 g. After the supernatant was removed, 2 × 10^6 cells in 50 µL volume of the same buffer were handed out into separate Eppendorf tubes, then 50 µL of AOH solutions (diluted in buffer, pH 5.5) was added (final concentrations: 2, 5, or 10 µM). The cells were incubated for 15 min at 37 °C in shaking water bath. The reaction was stopped with 1 mL ice-cold PBS, after which the tubes were centrifuged for 5 min at 1500 g and 4 °C. The supernatant was removed, and the cells were washed with 1 mL ice-cold PBS, then the cell pellet was stored at −80 °C until analyses.\nBefore HPLC measurements, cell pellets were dissolved in 100 μL of 1 M NaOH solution with vigorous vortexing. After 15 min sonication, the solution was neutralized with 100 μL of 1 M HCl, then 200 μL acetonitrile was added. […] Thereafter, the supernatant was directly analyzed with HPLC-FLD (see details in Section 2.7).\nTo examine the OATP1B1-mediated uptake of AOH in A431 cells, our recently reported magnesium-sensitized HPLC-FLD method was applied. […] AOH was quantified using 345 nm and 455 nm excitation and emission wavelengths, respectively. […]"}, "CYP2C9": {"target": "T1, CYP2C9 (Homo sapiens, UniProt P11712)", "T1 construct": "purchased Merck; host or cells: yeast (inferred from the description of the CYPnull control, 'processed identically')", "T1 sequence (P11712 whole entry)": "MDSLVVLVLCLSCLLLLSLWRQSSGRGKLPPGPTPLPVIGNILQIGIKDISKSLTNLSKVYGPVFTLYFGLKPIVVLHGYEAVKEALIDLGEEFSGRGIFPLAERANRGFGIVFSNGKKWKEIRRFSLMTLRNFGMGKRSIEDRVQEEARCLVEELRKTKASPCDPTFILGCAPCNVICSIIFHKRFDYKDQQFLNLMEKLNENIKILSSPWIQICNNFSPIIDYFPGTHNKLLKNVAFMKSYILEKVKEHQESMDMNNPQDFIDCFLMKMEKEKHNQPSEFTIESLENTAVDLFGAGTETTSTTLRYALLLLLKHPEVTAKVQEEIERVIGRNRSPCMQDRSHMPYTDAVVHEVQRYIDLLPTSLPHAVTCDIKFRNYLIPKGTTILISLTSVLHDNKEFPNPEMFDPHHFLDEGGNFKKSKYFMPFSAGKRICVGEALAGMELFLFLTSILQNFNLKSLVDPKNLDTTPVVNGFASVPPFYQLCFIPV", "assay": "biochemical", "protocol": "The potential inhibitory effects of AOH on CYP2C9, 2C19, 2D6, and 3A4 enzymes were tested in vitro employing CypExpress human kits, using the substrates recommended by the U.S. Food and Drug Administration (FDA; https://www.fda.gov/drugs/drug-interactions-labeling/drug-development-and-drug-interactions-table-substrates-inhibitors-and-inducers; accessed on 19 December 2022) (diclofenac, S-mephenytoin, dextromethorphan, and testosterone, respectively). […] In these assays, the substrates and products were quantified by HPLC-UV [28].\n(§1) IC50 values were calculated by sigmoidal fitting (Hill1), using the Origin (version 2018, OriginLab Corporation, Northampton, MA, USA) software.\n(§2) After CYP450 incubations, the product formation rate was investigated using an integrated HPLC system (Jasco, Tokyo, Japan) built up from an autosampler (AS-4050), a binary pump (PU-4180), and a UV detector (UV-975). Chromatographic data were evaluated employing ChromNAV2 software (Jasco, Tokyo, Japan). Quantitative determinations of 4′-hydroxydiclofenac and diclofenac (CYP2C9), 4-hydroxymephenytoin and mephenytoin (CYP2C19), dextromethorphan and dextrorphan (CYP2D6), as well as testosterone and 6β-hydroxytestosterone (CYP3A4) were carried out as previously reported, without modifications."}, "CYP2C19": {"target": "T2, CYP2C19 (Homo sapiens, UniProt P33261)", "T2 construct": "purchased Merck; host or cells: yeast (inferred from the description of the CYPnull control, 'processed identically')", "T2 sequence (P33261 whole entry)": "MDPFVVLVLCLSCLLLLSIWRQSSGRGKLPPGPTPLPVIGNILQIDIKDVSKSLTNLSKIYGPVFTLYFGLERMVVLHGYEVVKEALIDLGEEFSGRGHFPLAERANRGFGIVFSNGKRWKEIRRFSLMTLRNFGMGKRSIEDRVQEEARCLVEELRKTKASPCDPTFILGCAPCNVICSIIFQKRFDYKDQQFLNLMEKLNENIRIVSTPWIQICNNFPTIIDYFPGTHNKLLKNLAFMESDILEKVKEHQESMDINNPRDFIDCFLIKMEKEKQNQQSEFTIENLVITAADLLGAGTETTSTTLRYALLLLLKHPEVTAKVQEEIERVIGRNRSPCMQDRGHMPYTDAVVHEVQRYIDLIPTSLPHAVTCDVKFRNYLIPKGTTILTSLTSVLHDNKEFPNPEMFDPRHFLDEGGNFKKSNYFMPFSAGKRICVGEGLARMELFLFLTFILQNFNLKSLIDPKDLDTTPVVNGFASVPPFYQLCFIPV", "type": "biochemical", "protocol": "(§3) The potential inhibitory effects of AOH on CYP2C9, 2C19, 2D6, and 3A4 enzymes were tested in vitro employing CypExpress human kits, using the substrates recommended by the U.S. Food and Drug Administration (FDA; https://www.fda.gov/drugs/drug-interactions-labeling/drug-development-and-drug-interactions-table-substrates-inhibitors-and-inducers; accessed on 19 December 2022) (diclofenac, S-mephenytoin, dextromethorphan, and testosterone, respectively). The impacts of increasing concentrations of AOH (0.00, 0.05, 0.50, 2.0, 5.0, 10, 25, 30, and 50 μM) were examined on diclofenac 4′-hydroxylation (CYP2C9), S-mephenytoin 4-hydroxylation (CYP2C19), dextromethorphan demethylation (CYP2D6), and testosterone 6β-hydroxylation (CYP3A4) as described previously, without modifications. In these assays, the substrates and products were quantified by HPLC-UV [28].\nas §1, §2"}, "CYP2D6": {"target": "T3, CYP2D6 (Homo sapiens, UniProt P10635)", "T3 construct": "purchased Merck; host or cells: yeast (inferred from the description of the CYPnull control, 'processed identically')", "T3 sequence (P10635 whole entry)": "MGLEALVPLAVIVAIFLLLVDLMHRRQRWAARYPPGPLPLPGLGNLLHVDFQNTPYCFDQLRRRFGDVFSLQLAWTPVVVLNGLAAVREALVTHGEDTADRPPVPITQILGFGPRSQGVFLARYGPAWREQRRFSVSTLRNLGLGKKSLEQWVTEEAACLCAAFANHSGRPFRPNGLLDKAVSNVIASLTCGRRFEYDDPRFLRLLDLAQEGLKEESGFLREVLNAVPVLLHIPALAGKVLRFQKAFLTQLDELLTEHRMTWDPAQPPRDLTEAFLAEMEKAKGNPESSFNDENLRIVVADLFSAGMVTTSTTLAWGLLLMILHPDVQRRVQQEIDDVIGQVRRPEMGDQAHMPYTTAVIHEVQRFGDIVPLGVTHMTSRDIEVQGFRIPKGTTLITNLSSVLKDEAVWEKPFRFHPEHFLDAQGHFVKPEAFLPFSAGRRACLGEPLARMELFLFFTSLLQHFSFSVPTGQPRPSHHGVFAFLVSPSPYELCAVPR", "type": "biochemical", "settings": "50 μM AOH", "protocol": "as §3, §1, §2"}, "CYP3A4": {"target": "T4, CYP3A4 (Homo sapiens, UniProt P08684)", "T4 construct": "purchased Merck; host or cells: yeast (inferred from the description of the CYPnull control, 'processed identically')", "T4 sequence (P08684 whole entry)": "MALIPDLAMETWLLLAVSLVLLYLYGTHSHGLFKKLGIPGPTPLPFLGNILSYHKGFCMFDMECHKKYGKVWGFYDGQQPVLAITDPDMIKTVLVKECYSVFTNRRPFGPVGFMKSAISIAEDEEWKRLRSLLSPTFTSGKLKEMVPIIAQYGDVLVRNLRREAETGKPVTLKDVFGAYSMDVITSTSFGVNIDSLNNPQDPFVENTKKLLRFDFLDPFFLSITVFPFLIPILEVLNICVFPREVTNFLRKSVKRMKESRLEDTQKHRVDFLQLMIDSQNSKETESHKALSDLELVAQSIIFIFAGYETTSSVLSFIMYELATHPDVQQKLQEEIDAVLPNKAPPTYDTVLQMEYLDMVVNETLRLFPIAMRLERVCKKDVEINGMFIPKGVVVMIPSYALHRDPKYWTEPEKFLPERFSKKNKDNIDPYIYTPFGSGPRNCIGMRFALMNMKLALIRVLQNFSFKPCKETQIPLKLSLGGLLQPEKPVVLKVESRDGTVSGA", "type": "biochemical", "settings": "plateau above 10 μM AOH", "protocol": "as §3, §1, §2"}}}
{"smiles": "Cc1cc(O)cc2oc(=O)c3c(O)cc(O)cc3c12", "note": "[AOH, Alternariol]", "values": [{"measurement": "cellular AOH levels in OATP1B1 expressing vs mock cells", "setting": "OATP1B1", "result": "higher cellular AOH levels"}, {"measurement": "decrease in the product formation (CYP2C9)", "setting": "CYP2C9; 50 μM AOH", "result": "> 80", "unit": "%"}, {"measurement": "IC50", "setting": "CYP2C9; diclofenac 4'-hydroxylation, read-out: IC50, CYP2C9 inhibition", "result": 7.4, "unit": "µM"}, {"measurement": "CYP2C19 inhibition at 5 μM", "setting": "CYP2C19; 5 μM AOH, p < 0.01", "result": "significantly (p < 0.01) inhibited"}, {"measurement": "decrease in 4-hydroxymephenytoin production (CYP2C19)", "setting": "CYP2C19; 50 μM AOH (highest concentration)", "result": 55, "unit": "%"}, {"measurement": "effect on CYP2D6-catalyzed dextromethorphan demethylation", "setting": "CYP2D6", "result": "not affected"}, {"measurement": "CYP3A4 inhibition (decrease in metabolite formation)", "setting": "CYP3A4", "result": "approximately 40%"}]}
